“Also recorded” adds a separate entry of the source.

The subject of assay [1] is Myc-CAP-PTEN^−/− cells. The experiment in a line: Myc-CAP-PTEN−/− cells in vitro (western blotting, cytokine array). The format is cell-based, mouse. The following applies: 1 μM, 24 hours. The method, then:
FIGS. 35A-35D. […] (35A) Myc-CAP-PTEN^−/− cells were treated with copanlisib […] (IC90 concentration) in vitro for 24 hours, and protein extracts were harvested for western blotting analysis with the indicated antibodies to analyze PI3K activation. (35B) Supernatants from (35A) were harvested for cytokine array profiling. n=3 independent in vitro experiments. (35C) Mice bearing Myc-CAP-PTEN^−/− established syngeneic tumors (200 mm^3) were treated with copanlisib (14 mg/kg, every other day, until tumors reached 2000 mm^3). Tumor volumes were monitored daily and graphed. (35D) At the end of treatment, tumors were analyzed by flow cytometry for tumor infiltrating immune cell subsets. n=5 mice per group.
FIGS. 49A and 49B. PTEN-deficient cancer cells have diminished STING expression that can be restored by […] and pan-PI3K inhibitors. (49A) Isogenic MC38, Myc-CAP, ID8, and TRAMP cells (−/+ PTEN) were analyzed for STING mRNA and protein expression by qRT-PCR and western blotting, respectively. (49B) Myc-CAP-PTEN^−/− cells were treated with GSK′771 (PI3Kβ-selective inhibitor, 1 μM) or BKM120 (pan-PI3K inhibitor, 1 μM) for 24 hours, and proteins were analyzed for STING expression and PI3K activation by western blotting.
Cancer Cell Lines and in vitro drug treatments. Transgenic c-myc^hi prostate tumor derived cell line, Myc-CAP and TRAMPC1, ovarian cancer cell line ID8 and murine colon adenocarcinoma line MC38 were obtained from the American Type Culture Collection (ATCC) and passaged in either 1×RPMI/1×DMEM (with phenol) or 1×DMEM (without phenol red) containing 10% fetal bovine serum, 1% penicillin-streptomycin, 2% L-glutamine and 1×ITS. ID8^pten−/−p53−/−cells were a kind gift from Dr. Ian McNeish (Imperial College, London). For generation of STING over expressing cell lines −Myc-CAP^pten+/+ and ID8^pten−/− cells were transfected with commercial available plasmid (DC-Mm22462-SH02, Genecoepia™), sorted and expanded as per protocol. […]
For orientation: In western blotting, separated proteins are transferred to a membrane and probed.

Assay [2] can be described thus: IC90 concentrations stated for in vitro/ex vivo drug treatments. As to conditions: FIG. 50, Myc-CAP-PTEN^−/− tumor suspensions; read-out: IC90 concentration.
Assay [3] relates to single cell suspensions derived from Myc-CAP (STING^lo) tumors. Nature of the assay: Ex vivo reconstitution assay, IFNβ ELISA. Format: cell-based, mouse. The following applies: ex vivo. On the procedure:
FIGS. 15A-15E. Differential STING pathway activation within B6-Myc (STING^hi) cell lines and BMDMs relative to Myc-CAP (STING^lo) cells. (15A, 15B) The indicated cancer cell lines and BMDMs were treated with DMXAA (mouse STING agonist) for 1 and 24 hours, respectively, and protein extracts were interrogated for cGAS/STING pathway activation with the indicated antibodies by Western blotting. Supernatants were collected from for IFNβ1 ELISA following 36 hours of treatment with DMXAA (15C, 15D). (15E) Syngeneic Myc-CAP (STING^lo) tumors were processed into single cell suspensions and used for phycoerythrin-based sorting of CD45+ cellular fractions. Equal numbers of cells from these fractions were stimulated with DMXAA. Supernatants were collected at 36 hrs for detection of IFNB1 by ELISA; n=3 independent experiments; Significance/p-values were calculated by one-way Anova (for 15C & 15E) or paired t-test (for 15D); TAM=tumor associated macrophage; s.e.=short exposure; l.e.=long exposure.
FIGS. 29A-29M. PARPi alone induces DNA DSBs, but not apoptosis even in combination with PI3Ki in Myc-CAP (STING^lo) cancer cells; PARPi/PI3Ki combination induces intracellular DNA DSBs and proportionate release of MV surface-associated DNA DSBs from B6-Myc (STINGhi) cancer cells without affecting cellular viability; PARPi/PI3K treatment activates tumor-cell extrinsic cGAS/STING pathway within TAMs in vivo via MV surface-associated DNA DSBs released from tumor cells. Myc-CAP cancer cells were treated with the indicated drugs singly or in combination for 36 hours. (29A) Cells were stained with anti-mouse specific p-γH2AX antibody and a fluorescently labeled secondary antibody for determination of DNA DSBs, which were quantified by confocal microscopy. (29B) Protein extracts from cells in 29A were analyzed for the indicated pharmacodynamic biomarkers by western blotting; (29C) Annexin V-PI staining was done to assess frequency of live cells (Annexin V^− PI^−) following drug treatment. (29D) Ultracentrifugation was utilized to purify microvesicles (MVs) from supernatants in treatment groups in (29A) and associated DNA DSBs was quantified by Nanodrop®. Independent experiments n=2. (29E) Ultracentrifugation was utilized to purify MVs from supernatants in indicated treatment groups in FIG. 17A, and associated DNA DSBs were quantified by Nanodrop®; n=2 independent experiments. (29F) Syngeneic mice were engrafted with Myc-CAP (STING^lo) cells, and tumors were harvested when the tumor volume reached 400 mm^3. Single cell suspensions of the tumors were treated with the indicated drug(s), in the presence or absence of GW4869 (MV biogenesis inhibitor). (29G) Bone marrow derived macrophage (BMDMs) were co-cultured for 30 hours with supernatants (−/+ exogenous 50 units of DNase I pre-treatment for 30 minutes) from Myc-CAP cells that were treated with the indicated drug(s) for 36 hours. (29H) cGAMP (10 μg/mL) was pre-incubated with 10 units of DNAse I or mock control for 30 minutes and then added to BMDMs for 30 hours. (29I-29L) STING^+/+/STING^−/− BMDMs were co-cultured for 36 hours with supernatants from Myc-CAP and B6-Myc cancer cells that were treated with the indicated drug(s) for 36 hours. Supernatants were collected from 29F-29L at the end of treatment and analyzed for IFNβ1 by ELISA. […] Tumor volume was recorded daily for duration of experiment. […] Significance/p-values were calculated by one-way ANOVA. […]

Assay [4] has as its system Myc-CAP (STING^lo) tumors. The experiment in a line: Myc-CAP syngeneic tumor growth. As to conditions: for effect of concomitant agent on anti-tumor response elicited by degarelix/rucaparib/buparlisib (ADT/PARPi/PI3Ki): syngeneic mice. Format: in vivo, mouse. On the procedure: FIGS. 25A and 25B. […] (25A-25B) Myc-CAP (STING^lo) tumor-bearing syngeneic mice were treated with the indicated drug(s) until untreated tumors reached approx. 2500 mm^3. Tumor volume curves for duration of treatment are shown.
FIGS. 26A-26D. […] Immunodeficient athymic nude (26A) and NOD-SCID (26B) mice were engrafted with Myc-CAP (STING^lo) tumors and treated with the indicated drug(s) until untreated tumors reached approx. 2000 mm^3. Tumor volume curves for duration of treatment are shown. For 26A-26B, n=3-4 mice per group. (26C-26D) Single-cell suspensions were generated from harvested tumors and analyzed by flow cytometry for the indicated immune cell populations and their activation states. Data are represented relative to CD45+ immune cells. For 26C-26D, n=3-5 animals per treatment group from 2 independent experiments. Significance/p-values were calculated by […].
FIGS. 29A-29M. […] Myc-CAP cancer cells were treated with the indicated drugs singly or in combination for 36 hours. (29A) Cells were stained with anti-mouse specific p-γH2AX antibody and a fluorescently labeled secondary antibody for determination of DNA DSBs, which were quantified by confocal microscopy. (29B) Protein extracts from cells in 29A were analyzed for the indicated pharmacodynamic biomarkers by western blotting; (29C) Annexin V-PI staining was done to assess frequency of live cells (Annexin V^− PI^−) following drug treatment. (29D) Ultracentrifugation was utilized to purify microvesicles (MVs) from supernatants in treatment groups in (29A) and associated DNA DSBs was quantified by Nanodrop®. Independent experiments n=2. (29E) Ultracentrifugation was utilized to purify MVs from supernatants in indicated treatment groups in FIG. 17A, and associated DNA DSBs were quantified by Nanodrop®; n=2 independent experiments. (29F) Syngeneic mice were engrafted with Myc-CAP (STING^lo) cells, and tumors were harvested when the tumor volume reached 400 mm^3. Single cell suspensions of the tumors were treated with the indicated drug(s), in the presence or absence of GW4869 (MV biogenesis inhibitor). (29G) Bone marrow derived macrophage (BMDMs) were co-cultured for 30 hours with supernatants (−/+ exogenous 50 units of DNase I pre-treatment for 30 minutes) from Myc-CAP cells that were treated with the indicated drug(s) for 36 hours. (29H) cGAMP (10 μg/mL) was pre-incubated with 10 units of DNAse I or mock control for 30 minutes and then added to BMDMs for 30 hours. (29I-29L) STING^+/+/STING^−/− BMDMs were co-cultured for 36 hours with supernatants from Myc-CAP and B6-Myc cancer cells that were treated with the indicated drug(s) for 36 hours. Supernatants were collected from 29F-29L at the end of treatment and analyzed for IFNβ1 by ELISA. (29M) Myc-CAP (STING^lo) tumor-bearing mice were treated with the indicated drug(s) until tumors first reached approx. 2500 mm^3. For the degerelix/rucaparib/buparlisib combination, additional cohorts of mice underwent concomitant treatment with STING antagonist H-151 or GW4869. Tumor volume was recorded daily for duration of experiment. For in vitro experiments, n=2 independent experiments and for in vivo experiments n=3-4 animals /group.

Assay [5] deals with BMDMs. Nature of the assay: BMDM co-culture with supernatants from drug-treated cancer cells. Format: cell-based, mouse. As to conditions: cGAMP 10 μg/mL, 30 hours. The text has this: FIGS. 29A-29M. PARPi alone induces DNA DSBs, but not apoptosis even in combination with PI3Ki in Myc-CAP (STING^lo) cancer cells; PARPi/PI3Ki combination induces intracellular DNA DSBs and proportionate release of MV surface-associated DNA DSBs from B6-Myc (STINGhi) cancer cells without affecting cellular viability; PARPi/PI3K treatment activates tumor-cell extrinsic cGAS/STING pathway within TAMs in vivo via MV surface-associated DNA DSBs released from tumor cells. Myc-CAP cancer cells were treated with the indicated drugs singly or in combination for 36 hours. (29A) Cells were stained with anti-mouse specific p-γH2AX antibody and a fluorescently labeled secondary antibody for determination of DNA DSBs, which were quantified by confocal microscopy. (29B) Protein extracts from cells in 29A were analyzed for the indicated pharmacodynamic biomarkers by western blotting; (29C) Annexin V-PI staining was done to assess frequency of live cells (Annexin V^− PI^−) following drug treatment. (29D) Ultracentrifugation was utilized to purify microvesicles (MVs) from supernatants in treatment groups in (29A) and associated DNA DSBs was quantified by Nanodrop®. Independent experiments n=2. (29E) Ultracentrifugation was utilized to purify MVs from supernatants in indicated treatment groups in FIG. 17A, and associated DNA DSBs were quantified by Nanodrop®; n=2 independent experiments. […]

Turning to `Cc1c(Cn2c(C)nc3c(C(=O)O)cc(N4CCOCC4)cc32)cccc1C(F)(F)F` [GSK771], the “STING expression (western blotting)” value in assay [1] is listed as “restored”. The IC90 in assay [2] worked out at 500 nM.

As to `O=C(/C=C/c1ccc(/C=C/C(=O)Nc2ccc(C3=NCCN3)cc2)cc1)Nc1ccc(C2=NCCN2)cc1` [GW4869], in assay [3], the “effect of concomitant agent on IFNβ / Type I IFN production following rucaparib/buparlisib (PARPi/PI3Ki)” value is given as “abolished the IFNβ production; also recorded: Significant down-regulation of Type I IFN production”. The “effect of concomitant agent on anti-tumor response elicited by degarelix/rucaparib/buparlisib (ADT/PARPi/PI3Ki)” value in assay [4] was “abrogated the anti-tumor response; also recorded: significant abrogation”.

Take `CCc1ccc(NC(=O)Nc2c[nH]c3ccccc23)cc1` [H-151]: the “effect of concomitant agent on anti-tumor response elicited by PARPi/PI3Ki” value in assay [4] (c-myc driven murine PC models, immunocompetent mice) is on record as “abrogated”. In addition, in assay [4], the “effect of concomitant agent on anti-tumor response elicited by degarelix/rucaparib/buparlisib (ADT/PARPi/PI3Ki)” value was “abrogated the anti-tumor response”. In the case of `C[C@H](NC(=O)c1c(N)nn2cccnc12)c1cc2cccc(C#Cc3cnn(C)c3)c2c(=O)n1-c1ccccc1` [IPI549], the IC90 in assay [2] stood at 500 nM. In the case of `Nc1nc2c(ncn2[C@@H]2O[C@@H]3COP(=O)(O)O[C@H]4[C@@H](O)[C@H](n5cnc6c(N)ncnc65)O[C@@H]4COP(=O)(O)O[C@@H]2[C@@H]3O)c(=O)[nH]1` [cGAMP, cyclic guanosine monophosphate-adenosine monophosphate], in assay [5], the “Type I IFN production within BMDMs after DNase I pre-treatment of the agent” value is listed as “did not abrogate the Type I IFN production”.
